Experimental data: patent publication US20250257048A1, “METHODS OF PREPARING AN ISOINDOLINONE DERIVATIVE AND CRYSTAL FORMS THEREOF” (Monte Rosa Therapeutics, Inc., priority 2022, published 2025)
“And” between values parts separate entries of the source, which are not always exact repeats. Equal values may be shown once. Read-outs that look alike come from different tables or passages of the source. Blank lines part the entries; values can stand above or below the molecule they belong to.

How the values were obtained:
[1] = target: Full length wild-type cereblon CRBN (Homo sapiens (Human), UniProt Q96SW2); assay: fluorescence polarization (FP) homogeneous assay, cereblon binding; settings: CRBN 80.0 nM, probe 5 nM, FP read after 12 hours, read-out: rFP IC50
Method: Compound activity was monitored in a fluorescence polarization (FP) homogeneous assay using 1-[5-({2-[2-(2-{[2-(2,6-dioxopiperidin-3-yl)-1,3-dioxo-2,3-dihydro-1H-isoindol-4-yl]oxy}acetamido) ethoxy]ethyl}carbamoyl) pentyl]-3,3-dimethyl-2-[(1E,3E)-5-[(2E)-1,3,3-trimethyl-5-sulfo-2,3-dihydro-1H-indol-2-ylidene]penta-1,3-dien-1-yl]-3H-indol-1-ium-5-sulfonate as a fluorescent probe. Unless otherwise stated, all reagents were purchased from Sigma Aldrich. Enzymatic reactions were conducted in Perkin-Elmer Black 384 well ProxiPlate Plus (catalogue no. 6008269) in 10 μL total volume. Full length wild-type cereblon CRBN (80.0 nM, 10 μL) was incubated in assay buffer containing 20 mM HEPES (pH 8.0), […], 0.5 mM TCEP and 0.05% Tween 20 in the presence or absence of compound (300 nL). Inhibitors were stored as 10 mM DMSO stocks in an inert environment (low humidity, dark, low oxygen, room temperature) using the Storage Pod System. Compounds and DMSO were dispensed using the Echo E5XX (Labcyte Inc. USA) to give concentrations from 300 to 0.937 or 3000 to 9.3 nM in a 12 data point curve. […] FP was measured after a period of 12 hours using a Pherastar plate reader (BMG Labtech, Germany) exciting at 590 nm and measuring the amount of parallel and perpendicular light at 675 nm. […]

GSPT1 = GSPT1 (Homo sapiens (Human), UniProt P15170+Q96SW2); assay: immunofluorescence assay for GSPT1 degradation in CAL-51 cells; type: cell-based; settings: 6 hours treatment
Method: The representative compounds were tested in an immunofluorescence assay for their activity to bind to degrade GSPT1. CAL-51 cells were purchased from DSMZ (cat. Number ACC302), sub-cultured in 90% Dulbecco's MEM (4.5 g/L glucose, Gibco 11965)+10% heat inactivated FBS (BioConcept, 2-01F136I) and incubated at 37° C., 5% CO2. For the assay, imaging microtiterplate Cell Carrier 96 Ultra (Perkin Elmer 6055302) were pre-coated with Fibronectin (Sigma F085, 30 μl at 0.2 μg/ml) in PBS (100 μl, Gibco 14190) for 45 min at room temperature, rinsed with PBS and CAL-51 cells (30K cells/well) were plated and let to adhere overnight. Cells were treated with compounds typically using a serial dilution ranging from 30 μM to 0.1 nM for 6 hours. […]
Primary antibody (human GSPT1, Sigma HPA052488) was diluted in blocking buffer (dil.1/300, 35 μl/well) and incubated with the cells overnight at 4° C. […] Fluorescence intensity of Alexa-Fluor 488 (GSPT1), Alexa-Fluor 647 (Actin) and DAPI (Nucleus) were measured. […] The outline of the cells was determined analogously from the sum of the normalized, smoothed DAPI and Actin channel, starting from each nucleus.
The Alexa-Fluor 488 (GSPT1) signal intensity in each cell was finally measured, in order to obtain a Mean intensity per cell. GSPT1 degradation (DC50) was calculated after normalization to controls and data import in CDD vault Database, using non-linear regression. […]

[2] = solid stability at 40° C./75% RH and 25° C./60% RH for 7 days (HPLC purity, XRPD); type: physicochemical; settings: for physical and chemical stability: 25° C. 60% RH and 40° C. 75% RH for 7 days
Method: Solid stability was evaluated at 40° C./75RH and 25° C./60% RH for 7 days.

[3] = solubility of crystalline Form I in media (water) at 37° C.; type: physicochemical
Method: Solubility of crystalline Form I was evaluated by weighing about 10 mg of crystalline Form I into 2 mL of media, and then stirring the suspension at 37° C. for 24 hours. At 1, 4 and 24 hours, the suspensions were filtered, and the filtrates were analyzed by HPLC and pH.

[4] = hygroscopicity of crystalline form; type: physicochemical

Chain of GSPT1 (P15170 whole entry): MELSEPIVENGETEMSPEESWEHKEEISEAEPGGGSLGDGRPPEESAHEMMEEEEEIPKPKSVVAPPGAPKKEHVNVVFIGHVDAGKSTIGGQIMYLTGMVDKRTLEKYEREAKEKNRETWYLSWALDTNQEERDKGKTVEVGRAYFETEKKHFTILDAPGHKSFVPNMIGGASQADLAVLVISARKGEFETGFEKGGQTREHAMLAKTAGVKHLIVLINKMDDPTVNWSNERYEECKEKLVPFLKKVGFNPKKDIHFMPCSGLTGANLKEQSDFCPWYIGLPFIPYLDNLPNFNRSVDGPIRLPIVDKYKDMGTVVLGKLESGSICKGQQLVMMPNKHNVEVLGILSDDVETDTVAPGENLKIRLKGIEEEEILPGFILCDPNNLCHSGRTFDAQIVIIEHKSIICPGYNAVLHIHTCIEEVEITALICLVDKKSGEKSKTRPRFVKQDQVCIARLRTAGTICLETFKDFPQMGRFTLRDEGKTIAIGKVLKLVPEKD
Chain of GSPT1 (Q96SW2 whole entry): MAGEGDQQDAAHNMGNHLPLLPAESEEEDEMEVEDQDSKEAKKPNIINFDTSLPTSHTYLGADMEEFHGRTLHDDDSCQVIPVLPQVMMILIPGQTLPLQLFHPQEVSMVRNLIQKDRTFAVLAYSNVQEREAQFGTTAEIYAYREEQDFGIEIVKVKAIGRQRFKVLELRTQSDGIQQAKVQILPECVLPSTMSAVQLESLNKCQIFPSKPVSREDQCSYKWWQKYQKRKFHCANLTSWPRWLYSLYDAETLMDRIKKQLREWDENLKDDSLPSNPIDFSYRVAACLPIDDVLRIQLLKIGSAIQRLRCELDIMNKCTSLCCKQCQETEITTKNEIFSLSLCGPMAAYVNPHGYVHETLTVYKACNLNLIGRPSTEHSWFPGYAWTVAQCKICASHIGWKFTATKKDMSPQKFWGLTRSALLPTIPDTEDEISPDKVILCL
Chain of GSPT1 (Q16531 whole entry partner): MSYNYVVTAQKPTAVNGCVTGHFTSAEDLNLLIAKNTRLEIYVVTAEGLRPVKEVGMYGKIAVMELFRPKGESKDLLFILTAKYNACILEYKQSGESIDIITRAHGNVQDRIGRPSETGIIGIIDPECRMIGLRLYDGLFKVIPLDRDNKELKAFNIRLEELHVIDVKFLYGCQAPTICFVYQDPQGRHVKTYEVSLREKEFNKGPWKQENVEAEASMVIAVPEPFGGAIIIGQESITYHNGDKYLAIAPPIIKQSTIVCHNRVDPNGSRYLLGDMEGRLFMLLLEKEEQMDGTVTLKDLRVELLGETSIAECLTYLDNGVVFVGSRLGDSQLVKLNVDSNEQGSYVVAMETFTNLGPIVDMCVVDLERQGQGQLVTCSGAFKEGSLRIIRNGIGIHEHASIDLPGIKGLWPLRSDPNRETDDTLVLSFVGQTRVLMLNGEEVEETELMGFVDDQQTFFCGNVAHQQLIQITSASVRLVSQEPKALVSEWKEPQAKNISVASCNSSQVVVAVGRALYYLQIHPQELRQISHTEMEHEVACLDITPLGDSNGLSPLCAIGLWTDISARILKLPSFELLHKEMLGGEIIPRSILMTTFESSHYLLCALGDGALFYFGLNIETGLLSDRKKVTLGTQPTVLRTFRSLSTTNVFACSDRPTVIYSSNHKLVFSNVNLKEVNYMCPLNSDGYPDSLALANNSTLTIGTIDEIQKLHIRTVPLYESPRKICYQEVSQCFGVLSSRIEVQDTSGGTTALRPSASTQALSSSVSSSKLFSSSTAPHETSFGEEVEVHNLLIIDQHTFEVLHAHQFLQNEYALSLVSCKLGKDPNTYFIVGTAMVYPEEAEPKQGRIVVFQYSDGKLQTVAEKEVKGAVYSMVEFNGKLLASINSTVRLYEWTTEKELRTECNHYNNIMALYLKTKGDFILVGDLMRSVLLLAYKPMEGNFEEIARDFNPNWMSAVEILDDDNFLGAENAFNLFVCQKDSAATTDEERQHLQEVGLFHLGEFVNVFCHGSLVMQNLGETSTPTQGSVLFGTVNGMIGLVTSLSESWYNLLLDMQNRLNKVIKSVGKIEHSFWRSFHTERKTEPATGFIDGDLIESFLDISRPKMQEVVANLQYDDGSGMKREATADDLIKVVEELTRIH
Chain of Full length wild-type cereblon CRBN (Q96SW2 whole entry): as the sequence (Q96SW2 whole entry) above

IC50 [1]: 500 to 1100 nM
DC50 (GSPT1): 30 to 300 nM
SMILES: O=C1CCC(N2Cc3ccc(COC(=O)Nc4cc(OC(F)(F)F)ccc4F)cc3C2=O)C(=O)N1 (centres unmarked) [Compound 145, (2-(2,6-dioxopiperidin-3-yl)-3-oxoisoindolin-5-yl)methyl (2-fluoro-5-(trifluoromethoxy)phenyl)carbamate]

physical and chemical stability [2]: good physical and chemical stability
physical and chemical stability ([2]; listed as Crystalline Form I): physically and chemically stable
physical and chemical stability ([2]; listed as crystalline Form I): no obvious degradation nor form change
Purity ([2]; 25° C./60% RH, 1 day): 100%
XRPD ([2]; 25° C./60% RH, 1 day): Form I
Purity ([2]; 25° C./60% RH, 7 day): 100%
XRPD ([2]; 25° C./60% RH, 7 day): Form I
Purity ([2]; 40° C./75% RH, 1 day): 100%
XRPD ([2]; 40° C./75% RH, 1 day): Form I
Purity ([2]; 40° C./75% RH, 7 day): 99.95%
XRPD ([2]; 40° C./75% RH, 7 day): Form I
Purity-T0 ([2]; T0 (day 0), HPLC): 100%
crystal form of remained solid in all media ([3]; 37° C., after 1, 4 and 24 hours, XRPD (FIG. 5)): unchanged
solubility ([3]; aqueous solution, 37 °C, aqueous buffer, thermodynamic from solid, about pH 6 to 7, read-out: solubility in an aqueous solution): < 1 µg/mL
pH(24 h) ([3]; pH of filtrate, H2O, 37° C., 24 h): 6.35 and 6.61 and 6.41
XRPD(24 h) ([3]; remained solid, H2O, 37° C., 24 h): Form I
solubility at 1 h ([3]; water, 37 °C, thermodynamic from solid, H2O, 1 h, triplicate H2O-1 to H2O-3): < 1 µg/mL
solubility at 4 h ([3]; water, 37 °C, thermodynamic from solid, H2O, 4 h, triplicate H2O-1 to H2O-3): < 1 µg/mL
solubility at 24 h ([3]; water, 37 °C, thermodynamic from solid, H2O, 24 h, triplicate H2O-1 to H2O-3): < 1 µg/mL
solubility ([3]; water, 37 °C, water, thermodynamic from solid, read-out: solubility in water): < 1 µg/mL
hygroscopicity [4]: nonhydroscopic
SMILES: O=C1CCC(N2Cc3ccc(COC(=O)Nc4cc(OC(F)(F)F)ccc4F)cc3C2=O)C(=O)N1 (centres unmarked) [Form I, (2-(2,6-dioxopiperidin-3-yl)-3-oxoisoindolin-5-yl)methyl (2-fluoro-5-(trifluoromethoxy)phenyl)carbamate]
